Data as given in ChEMBL document CHEMBL4825684, “Design, synthesis and biological evaluation of N-anthraniloyl tryptamine derivatives as pleiotropic molecules for the therapy of malignant glioma” (Eur J Med Chem, 2021).
Active and inactive are the calls of the source. The rule behind the calls is not given here.

What was measured:
C6 [1] = experiment: Antiproliferative activity against rat C6 cells assessed as growth inhibition incubated for 72 hrs by CCK-8 assay; type: functional, cell-based; conditions: C6, 72 h
U-251 = experiment: Antiproliferative activity against human U-251 cells assessed as growth inhibition incubated for 72 hrs by CCK-8 assay; type: functional, cell-based; conditions: U-251, 72 h
U-87 MG = experiment: Antiproliferative activity against human U-87 MG cells assessed as growth inhibition incubated for 72 hrs by CCK-8 assay; type: functional, cell-based, U-87MG ATCC
[2] = molecular target: T1, Prostaglandin G/H synthase 2 (Homo sapiens, UniProt P35354); experiment: Inhibition of human COX2 assessed as fluorescence by microplate reader
T1 sequence (P35354 whole entry): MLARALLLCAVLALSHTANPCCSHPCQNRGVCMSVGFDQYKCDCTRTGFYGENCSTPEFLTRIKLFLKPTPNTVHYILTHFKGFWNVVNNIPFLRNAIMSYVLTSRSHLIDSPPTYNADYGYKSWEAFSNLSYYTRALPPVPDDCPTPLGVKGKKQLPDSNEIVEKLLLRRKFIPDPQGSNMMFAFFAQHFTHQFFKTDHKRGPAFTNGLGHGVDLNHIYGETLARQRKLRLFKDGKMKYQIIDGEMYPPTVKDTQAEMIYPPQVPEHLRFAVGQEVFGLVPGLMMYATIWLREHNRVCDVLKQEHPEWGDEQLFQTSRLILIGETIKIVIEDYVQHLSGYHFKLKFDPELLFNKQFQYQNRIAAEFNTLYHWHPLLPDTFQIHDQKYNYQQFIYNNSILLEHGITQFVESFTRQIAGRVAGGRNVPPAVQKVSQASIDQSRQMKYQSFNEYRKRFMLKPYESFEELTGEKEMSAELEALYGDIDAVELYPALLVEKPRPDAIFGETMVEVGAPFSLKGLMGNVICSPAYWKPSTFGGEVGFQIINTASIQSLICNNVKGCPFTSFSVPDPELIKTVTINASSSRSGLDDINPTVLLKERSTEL

BV-2 = experiment: Inhibition of MMP9 production in mouse BV-2 cells co-cultured with rat C6 glioma cells at 2 uM incubated for 24 hrs by Western blot analysis; type: functional, cell-based
C6 [3] = experiment: Antitumor activity against rat C6 cells inoculated orthotopic Sprague-Dawley rat model assessed as decrease in PGE2 in tumor tissue at 50 mg/kg, ip twice a day treated 3 days after tumor cell injection measured for 13 days after tumor implantation […]; type: functional, organism-based; conditions: time 3.0 day
C6 [4] = experiment: Antitumor activity against rat C6 cells inoculated orthotopic Sprague-Dawley rat model assessed as decrease in VEGF-A in tumor tissue at 50 mg/kg, ip twice a day treated 3 days after tumor cell injection measured for 13 days after tumor implantation by Western blot analysis; type: functional, organism-based; conditions: time 3.0 day
[5] = Toxicity in rat C6 cells inoculated orthotopic Sprague-Dawley rat model assessed as body weight change at 50 mg/kg, ip twice a day administered for 13 days of tumor implantation; type: organism-based; conditions: in vivo, 312 h, time 13 day
C6 [6] = experiment: Antitumor activity against rat C6 cells inoculated orthotopic Sprague-Dawley rat model assessed as reduction tumor weight at 50 mg/kg, ip twice a day treated 3 days after tumor cell injection measured for 13 days after tumor implantation; type: functional, organism-based; conditions: time 3.0 day
C6 [7] = experiment: Antitumor activity against rat C6 cells inoculated orthotopic Sprague-Dawley rat model assessed as tumor growth inhibition at 50 mg/kg, ip twice a day treated 3 days after tumor cell injection measured for 13 days after tumor implantation; type: functional; conditions: 72 h, time 3 day, read-out: TGI
C6 [8] = experiment: Antitumor activity against rat C6 cells inoculated orthotopic Sprague-Dawley rat model assessed as reduction tumor volume at 50 mg/kg, ip twice a day treated 3 days after tumor cell injection measured for 13 days after tumor implantation; type: functional, organism-based; conditions: time 3.0 day
C6 [9] = experiment: Antitumor activity against rat C6 cells inoculated orthotopic Sprague-Dawley rat model assessed as increase in E-cadherin in tumor tissue at 50 mg/kg, ip twice a day treated 3 days after tumor cell injection measured for 13 days after tumor implantation by Western blot analysis; type: functional, organism-based; conditions: time 3.0 day
C6 [10] = experiment: Antitumor activity against rat C6 cells inoculated orthotopic Sprague-Dawley rat model assessed as decrease in p-STAT3 in tumor tissue at 50 mg/kg, ip twice a day treated 3 days after tumor cell injection measured for 13 days after tumor implantation by Western blot analysis; type: functional, organism-based; conditions: time 3.0 day

Row | SMILES | IC50 (C6 [1]) | IC50 (U-251) | IC50 (U-87 MG) | IC50 [2] | further results
1 | COc1ccc2[nH]cc(CCNC(C)=O)c2c1 [MELATONIN] | > 40 µM | > 40 µM | > 40 µM | – | –
2 | O=C(NCCc1c[nH]c2ccccc12)c1ccccc1Nc1ccc(Br)cc1 | > 40 µM | > 40 µM | > 40 µM | 5.68 µM | –
3 | Cc1ccc(Nc2ccccc2C(=O)NCCc2c[nH]c3ccccc23)cc1 | > 40 µM | 13.7 µM | 34.7 µM | 5.96 µM | –
4 | O=C(NCCc1c[nH]c2ccccc12)c1ccccc1Nc1cccc(F)c1 | > 40 µM | 20.4 µM | > 40 µM | > 40 µM | –
5 | Cc1cncc(Nc2ccccc2C(=O)NCCc2c[nH]c3ccccc23)c1 | > 40 µM | 24.4 µM | > 40 µM | 17.6 µM | –
6 | Cc1ccc(-c2cc(C(F)(F)F)nn2-c2ccc(S(N)(=O)=O)cc2)cc1 [CELECOXIB] | > 40 µM | > 40 µM | > 40 µM | – | –
7 | Cc1ccc(Nc2ccccc2C(=O)NCCc2c[nH]c3ccccc23)cn1 | > 40 µM | 17.9 µM | > 40 µM | 19.6 µM | –
8 | O=C(NCCc1c[nH]c2ccccc12)c1ccccc1Nc1ccccc1F | > 40 µM | 26.2 µM | > 40 µM | 4.23 µM | –
9 | O=C(NCCc1c[nH]c2ccccc12)c1ccccc1Nc1ccc(C(F)(F)F)cc1 | > 40 µM | 17.3 µM | 35.7 µM | > 40 µM | –
10 | O=C(NCCc1c[nH]c2ccccc12)c1ccccc1Nc1cccc2cccnc12 | > 40 µM | > 40 µM | > 40 µM | > 40 µM | –
11 | O=C(NCCc1c[nH]c2ccccc12)c1ccccc1Nc1cccc(Br)c1 | > 40 µM | 21 µM | > 40 µM | > 40 µM | –
12 | O=C(NCCc1c[nH]c2ccccc12)c1ccccc1Nc1ccc(F)cc1 | 27.1 µM | 12.8 µM | > 40 µM | 2.46 µM | –
13 | O=C(NCCc1c[nH]c2ccccc12)c1ccccc1Nc1cccc(Cl)c1 | > 40 µM | 22.2 µM | > 40 µM | > 40 µM | –
14 | O=C(NCCc1c[nH]c2ccccc12)c1ccccc1Nc1ccc(Cl)cc1 | > 40 µM | 17.9 µM | > 40 µM | 3.98 µM | –
15 | COc1ccc(Nc2ccccc2C(=O)NCCc2c[nH]c3ccccc23)cc1 | > 40 µM | 32.3 µM | > 40 µM | 6.21 µM | –
16 | Nc1ccccc1Nc1ccccc1C(=O)NCCc1c[nH]c2ccccc12 | > 40 µM | > 40 µM | > 40 µM | 1.21 µM | inhibition (BV-2): Active
17 | O=C(NCCc1c[nH]c2ccccc12)c1ccccc1Nc1ccccc1Br | 17.9 µM | 21.4 µM | > 40 µM | > 40 µM | –
18 | Cn1nnc2c(C(N)=O)ncn2c1=O [TEMOZOLOMIDE] | – | – | – | – | Activity (C6 [3]): Active; Activity (C6 [4]): Active; Activity [5]: Toxic; Activity (C6 [6]): Active; inhibition in vivo at 50 mg/kg (C6 [7]): 54.8%; Activity (C6 [8]): Active; Activity (C6 [9]): Active; Activity (C6 [10]): Active
19 | Cc1cccc(Nc2ccccc2C(=O)NCCc2c[nH]c3ccccc23)c1 | > 40 µM | 13.3 µM | 23.4 µM | 31 µM | –
20 | O=C(NCCc1c[nH]c2ccccc12)c1ccccc1Nc1cncc(Br)c1 | > 40 µM | 25.1 µM | > 40 µM | > 40 µM | –
21 | O=C(NCCc1c[nH]c2ccccc12)c1ccccc1Nc1ccccc1Cl | > 40 µM | 14.8 µM | > 40 µM | > 40 µM | –
22 | O=C(NCCc1c[nH]c2ccccc12)c1ccccc1Nc1cccnc1Cl | 24.1 µM | 27.5 µM | > 40 µM | 2.96 µM | –
23 | Cc1ncccc1Nc1ccccc1C(=O)NCCc1c[nH]c2ccccc12 | > 40 µM | 24.6 µM | > 40 µM | 1.96 µM | –
24 | O=C(NCCc1c[nH]c2ccccc12)c1ccccc1Nc1cccnc1 | > 40 µM | 25.2 µM | > 40 µM | 23.7 µM | –
25 | O=C(NCCc1c[nH]c2ccccc12)c1ccccc1Nc1ccc2nccnc2c1 | > 40 µM | > 40 µM | > 40 µM | > 40 µM | –
26 | CN(C)c1ccc(Nc2ccccc2C(=O)NCCc2c[nH]c3ccccc23)cc1 | > 40 µM | > 40 µM | > 40 µM | 1.43 µM | inhibition (BV-2): Active
27 | O=C(NCCc1c[nH]c2ccccc12)c1ccccc1Nc1ccccc1I | > 40 µM | 32.9 µM | > 40 µM | > 40 µM | –
28 | Cc1ccccc1Nc1ccccc1C(=O)NCCc1c[nH]c2ccccc12 | > 40 µM | 30.5 µM | > 40 µM | > 40 µM | –
29 | CCCCc1ccc(Nc2ccccc2C(=O)NCCc2c[nH]c3ccccc23)cc1 | > 33.7 µM | 18.2 µM | > 40 µM | > 40 µM | –
